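Dose response: 5 concentrations. Exposure: 48 h. Format: 96-well plates. Endpoint: linear interpolation; highest concentration if not reached. GI50 = concentration required for 50% inhibition of growth.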 Activity calls are given as the source filed them. Rule as the data show it: active = GI50 up to about 1.1 µM and inactive = higher.
Tests used:
Assay in all cases: DTP human tumour cell line panel, 48 h
[1] = system: 786-0
[2] = system: A498
[3] = system: A549
[4] = system: ACHN
[5] = system: BT-549
[6] = system: CAKI-1
[7] = system: CCRF-CEM
[8] = system: COLO 205
[9] = system: DU-145
[10] = system: EKVX
[11] = system: HCC 2998
[12] = system: HCT-116
[13] = system: HCT-15
[14] = system: HL-60
[15] = system: HOP-62
[16] = system: HOP-92
[17] = system: HT-29
[18] = system: Hs-578T
[19] = system: IGROV-1
[20] = system: K562
[21] = system: KM12
[22] = system: LOX IMVI
[23] = system: M14
[24] = system: MCF7
[25] = system: MDA-MB-231
[26] = system: MDA-MB-435
[27] = system: MDA-N
[28] = system: MOLT-4
[29] = system: NCI-H226
[30] = system: NCI-H23
[31] = system: NCI-H460
[32] = system: NCI-H522
[33] = system: NCI/ADR-RES
[34] = system: OVCAR-3
[35] = system: OVCAR-4
[36] = system: OVCAR-5
[37] = system: OVCAR-8
[38] = system: PC-3
[39] = system: RPMI-8226
[40] = system: RXF 393
[41] = system: SF-268
[42] = system: SF-295
[43] = system: SF-539
[44] = system: SK-MEL-28
[45] = system: SK-MEL-2
[46] = system: SK-MEL-5
[47] = system: SK-OV-3
[48] = system: SN12C
[49] = system: SNB-19
[50] = system: SNB-75
[51] = system: SR
[52] = system: SW-620
[53] = system: T47D
[54] = system: TK-10
[55] = system: U-251
[56] = system: UACC-257
[57] = system: UACC-62
[58] = system: UO-31
[59] = system: Malme-3M

CCCCCCCCCCCCCCCC[N+](C)(C)Cc1ccc(F)cc1
GI50 [1]: 1.47 µM (inactive)
GI50 [2]: 26.2 µM (inactive)
GI50 [3]: 2.67 µM (inactive)
GI50 [4]: 3.07 µM (inactive)
GI50 [5]: 2.37 µM (inactive)
GI50 [6]: 2.7 µM (inactive)
GI50 [7]: 0.771 µM (active)
GI50 [8]: 1.61 µM (inactive)
GI50 [9]: 3.68 µM (inactive)
GI50 [10]: 2 µM (inactive)
GI50 [11]: 1.47 µM (inactive)
GI50 [12]: 1.48 µM (inactive)
GI50 [13]: 8.43 µM
GI50 [14]: 0.184 µM (active)
GI50 [15]: 1.5 µM (inactive)
GI50 [16]: 1.27 µM (inactive)
GI50 [17]: 1.26 µM (inactive)
GI50 [18]: 1.89 µM (inactive)
GI50 [19]: 0.383 µM (active)
GI50 [20]: 1.26 µM (inactive)
GI50 [21]: 1.26 µM (inactive)
GI50 [22]: 1.47 µM (inactive)
GI50 [23]: 1.6 µM (inactive)
GI50 [24]: 1.61 µM (inactive)
GI50 [25]: 1.32 µM (inactive)
GI50 [26]: 1.84 µM (inactive)
GI50 [27]: 1.96 µM (inactive)
GI50 [28]: 1.46 µM (inactive)
GI50 [29]: 2.15 µM (inactive)
GI50 [30]: 2.16 µM (inactive)
GI50 [31]: 1.44 µM (inactive)
GI50 [32]: 0.724 µM (active)
GI50 [33]: 18.1 µM (inactive)
GI50 [34]: 1.94 µM (inactive)
GI50 [35]: 1.55 µM (inactive)
GI50 [36]: 1.83 µM (inactive)
GI50 [37]: 1.51 µM (inactive)
GI50 [38]: 1.11 µM (active)
GI50 [39]: 1.06 µM (active)
GI50 [40]: 1.11 µM (active)
GI50 [41]: 1.56 µM (inactive)
GI50 [42]: 2.37 µM (inactive)
GI50 [43]: 1.29 µM (inactive)
GI50 [44]: 3.08 µM (inactive)
GI50 [45]: 1.62 µM (inactive)
GI50 [46]: 1.75 µM (inactive)
GI50 [47]: 2.2 µM (inactive)
GI50 [48]: 1.62 µM (inactive)
GI50 [49]: 1.66 µM (inactive)
GI50 [50]: 1.39 µM (inactive)
GI50 [51]: 1.54 µM (inactive)
GI50 [52]: 1.7 µM (inactive)
GI50 [53]: 3.33 µM (inactive)
GI50 [54]: 1.48 µM (inactive)
GI50 [55]: 1.43 µM (inactive)
GI50 [56]: 1.79 µM (inactive)
GI50 [57]: 1.67 µM (inactive)
GI50 [58]: 6.84 µM (inactive)

Nc1ccc2c(c1)S(=O)(=O)c1cc(O)ccc1O2
GI50 [1]: > 100 µM (inactive)
GI50 [2]: 31.2 µM (inactive)
GI50 [3]: > 100 µM (inactive)
GI50 [4]: > 100 µM (inactive)
GI50 [5]: 45.6 µM (inactive)
GI50 [6]: 45.2 µM (inactive)
GI50 [7]: > 100 µM (inactive)
GI50 [8]: > 100 µM (inactive)
GI50 [9]: > 100 µM (inactive)
GI50 [10]: > 100 µM (inactive)
GI50 [11]: > 100 µM (inactive)
GI50 [12]: > 100 µM (inactive)
GI50 [13]: > 100 µM
GI50 [14]: > 100 µM (inactive)
GI50 [15]: > 100 µM (inactive)
GI50 [16]: > 100 µM (inactive)
GI50 [17]: > 100 µM (inactive)
GI50 [18]: > 100 µM (inactive)
GI50 [19]: > 100 µM (inactive)
GI50 [20]: > 100 µM (inactive)
GI50 [21]: > 100 µM (inactive)
GI50 [22]: > 100 µM (inactive)
GI50 [23]: > 100 µM (inactive)
GI50 [24]: > 100 µM (inactive)
GI50 [25]: > 100 µM (inactive)
GI50 [26]: > 100 µM (inactive)
GI50 [27]: > 100 µM (inactive)
GI50 [28]: > 100 µM (inactive)
GI50 [29]: > 100 µM (inactive)
GI50 [30]: > 100 µM (inactive)
GI50 [31]: > 100 µM (inactive)
GI50 [32]: > 100 µM (inactive)
GI50 [33]: > 100 µM (inactive)
GI50 [34]: > 100 µM (inactive)
GI50 [35]: > 100 µM (inactive)
GI50 [36]: > 100 µM (inactive)
GI50 [37]: > 100 µM (inactive)
GI50 [38]: > 100 µM (inactive)
GI50 [40]: 48.3 µM (inactive)
GI50 [41]: > 100 µM (inactive)
GI50 [42]: > 100 µM (inactive)
GI50 [43]: > 100 µM (inactive)
GI50 [44]: > 100 µM (inactive)
GI50 [45]: > 100 µM (inactive)
GI50 [46]: > 100 µM (inactive)
GI50 [47]: > 100 µM (inactive)
GI50 [48]: > 100 µM (inactive)
GI50 [49]: > 100 µM (inactive)
GI50 [51]: 39.7 µM (inactive)
GI50 [52]: > 100 µM (inactive)
GI50 [53]: > 100 µM (inactive)
GI50 [54]: > 100 µM (inactive)
GI50 [55]: > 100 µM (inactive)
GI50 [56]: > 100 µM (inactive)
GI50 [57]: > 100 µM (inactive)
GI50 [58]: 55.3 µM (inactive)

O=C(/C=C/c1ccc2c(c1)OCO2)Cc1nc2ncccc2[nH]c1=O
GI50 [1]: 75.3 µM (inactive)
GI50 [2]: > 100 µM (inactive)
GI50 [3]: > 100 µM (inactive)
GI50 [4]: 32.2 µM (inactive)
GI50 [5]: > 100 µM (inactive)
GI50 [6]: > 100 µM (inactive)
GI50 [7]: > 100 µM (inactive)
GI50 [8]: 70.3 µM (inactive)
GI50 [9]: > 100 µM (inactive)
GI50 [10]: > 100 µM (inactive)
GI50 [11]: > 100 µM (inactive)
GI50 [12]: > 100 µM (inactive)
GI50 [13]: 92.7 µM
GI50 [14]: > 100 µM (inactive)
GI50 [15]: 39 µM (inactive)
GI50 [16]: > 100 µM (inactive)
GI50 [17]: > 100 µM (inactive)
GI50 [18]: 36.5 µM (inactive)
GI50 [19]: 94.6 µM (inactive)
GI50 [20]: 5.55 µM (inactive)
GI50 [21]: 61.1 µM (inactive)
GI50 [22]: 8.53 µM (inactive)
GI50 [23]: > 100 µM (inactive)
GI50 [24]: > 100 µM (inactive)
GI50 [25]: > 100 µM (inactive)
GI50 [26]: > 100 µM (inactive)
GI50 [27]: > 100 µM (inactive)
GI50 [28]: > 100 µM (inactive)
GI50 [59]: > 100 µM (inactive)
GI50 [30]: > 100 µM (inactive)
GI50 [31]: > 100 µM (inactive)
GI50 [32]: 60.7 µM (inactive)
GI50 [33]: > 100 µM (inactive)
GI50 [34]: > 100 µM (inactive)
GI50 [36]: > 100 µM (inactive)
GI50 [37]: 59.8 µM (inactive)
GI50 [38]: > 100 µM (inactive)
GI50 [39]: > 100 µM (inactive)
GI50 [40]: 49.4 µM (inactive)
GI50 [41]: 49.7 µM (inactive)
GI50 [42]: 69.3 µM (inactive)
GI50 [43]: 53.7 µM (inactive)
GI50 [44]: > 100 µM (inactive)
GI50 [45]: > 100 µM (inactive)
GI50 [46]: > 100 µM (inactive)
GI50 [47]: 98.9 µM (inactive)
GI50 [48]: > 100 µM (inactive)
GI50 [49]: 63.8 µM (inactive)
GI50 [51]: 77.1 µM (inactive)
GI50 [52]: > 100 µM (inactive)
GI50 [53]: 78.3 µM (inactive)
GI50 [54]: 42.8 µM (inactive)
GI50 [55]: 31.1 µM (inactive)
GI50 [56]: > 100 µM (inactive)
GI50 [57]: 9.53 µM (inactive)
GI50 [58]: > 100 µM (inactive)

COc1cccc2c1-c1ccccc1[C@H](Nc1ccccc1)[C@@]2(C)O
GI50 [1]: 5.45 µM (inactive)
GI50 [2]: 8.95 µM (inactive)
GI50 [3]: 7.5 µM (inactive)
GI50 [4]: 9.57 µM (inactive)
GI50 [5]: 8.41 µM (inactive)
GI50 [6]: 4.1 µM (inactive)
GI50 [7]: 1.42 µM (inactive)
GI50 [8]: 3.1 µM (inactive)
GI50 [9]: 5.3 µM (inactive)
GI50 [10]: 11 µM (inactive)
GI50 [11]: 7.26 µM (inactive)
GI50 [12]: 4.11 µM (inactive)
GI50 [13]: 4.3 µM
GI50 [14]: 5.42 µM (inactive)
GI50 [15]: 3.85 µM (inactive)
GI50 [16]: 11.2 µM (inactive)
GI50 [17]: 3.78 µM (inactive)
GI50 [18]: 4.97 µM (inactive)
GI50 [20]: 3.31 µM (inactive)
GI50 [21]: 3.04 µM (inactive)
GI50 [22]: 10.1 µM (inactive)
GI50 [23]: 3.86 µM (inactive)
GI50 [24]: 4.34 µM (inactive)
GI50 [25]: 10.3 µM (inactive)
GI50 [26]: 1.56 µM (inactive)
GI50 [27]: 1.71 µM (inactive)
GI50 [28]: 7.28 µM (inactive)
GI50 [59]: 7.93 µM (inactive)
GI50 [29]: 3.4 µM (inactive)
GI50 [30]: 7.67 µM (inactive)
GI50 [31]: 3.91 µM (inactive)
GI50 [32]: 2.37 µM (inactive)
GI50 [33]: 3.64 µM (inactive)
GI50 [34]: 2.7 µM (inactive)
GI50 [35]: 10.3 µM (inactive)
GI50 [36]: 11.6 µM (inactive)
GI50 [37]: 10.4 µM (inactive)
GI50 [38]: 6.21 µM (inactive)
GI50 [40]: 4.6 µM (inactive)
GI50 [41]: 5.71 µM (inactive)
GI50 [42]: 4.13 µM (inactive)
GI50 [43]: 2.77 µM (inactive)
GI50 [44]: 11.3 µM (inactive)
GI50 [45]: 6.12 µM (inactive)
GI50 [46]: 3.62 µM (inactive)
GI50 [47]: 4.27 µM (inactive)
GI50 [48]: 4.55 µM (inactive)
GI50 [49]: 5.81 µM (inactive)
GI50 [50]: 2.28 µM (inactive)
GI50 [51]: 0.865 µM (active)
GI50 [52]: 4.35 µM (inactive)
GI50 [53]: 8.85 µM (inactive)
GI50 [54]: 8.87 µM (inactive)
GI50 [55]: 4.84 µM (inactive)
GI50 [56]: 6.11 µM (inactive)
GI50 [57]: 9.12 µM (inactive)
GI50 [58]: 4.93 µM (inactive)

— ChEMBL document CHEMBL1201862, “PubChem BioAssay data set” (2004)
